What all share (type): cell-based
The target of experiment [1] is T1, Jak3 phosphorylation in NK-92 cells (Homo sapiens, UniProt P52333).
T1 construct: endogenous in cells; host or cells: NK-92 cells (ATCC)
T1 sequence (P52333 1-1124): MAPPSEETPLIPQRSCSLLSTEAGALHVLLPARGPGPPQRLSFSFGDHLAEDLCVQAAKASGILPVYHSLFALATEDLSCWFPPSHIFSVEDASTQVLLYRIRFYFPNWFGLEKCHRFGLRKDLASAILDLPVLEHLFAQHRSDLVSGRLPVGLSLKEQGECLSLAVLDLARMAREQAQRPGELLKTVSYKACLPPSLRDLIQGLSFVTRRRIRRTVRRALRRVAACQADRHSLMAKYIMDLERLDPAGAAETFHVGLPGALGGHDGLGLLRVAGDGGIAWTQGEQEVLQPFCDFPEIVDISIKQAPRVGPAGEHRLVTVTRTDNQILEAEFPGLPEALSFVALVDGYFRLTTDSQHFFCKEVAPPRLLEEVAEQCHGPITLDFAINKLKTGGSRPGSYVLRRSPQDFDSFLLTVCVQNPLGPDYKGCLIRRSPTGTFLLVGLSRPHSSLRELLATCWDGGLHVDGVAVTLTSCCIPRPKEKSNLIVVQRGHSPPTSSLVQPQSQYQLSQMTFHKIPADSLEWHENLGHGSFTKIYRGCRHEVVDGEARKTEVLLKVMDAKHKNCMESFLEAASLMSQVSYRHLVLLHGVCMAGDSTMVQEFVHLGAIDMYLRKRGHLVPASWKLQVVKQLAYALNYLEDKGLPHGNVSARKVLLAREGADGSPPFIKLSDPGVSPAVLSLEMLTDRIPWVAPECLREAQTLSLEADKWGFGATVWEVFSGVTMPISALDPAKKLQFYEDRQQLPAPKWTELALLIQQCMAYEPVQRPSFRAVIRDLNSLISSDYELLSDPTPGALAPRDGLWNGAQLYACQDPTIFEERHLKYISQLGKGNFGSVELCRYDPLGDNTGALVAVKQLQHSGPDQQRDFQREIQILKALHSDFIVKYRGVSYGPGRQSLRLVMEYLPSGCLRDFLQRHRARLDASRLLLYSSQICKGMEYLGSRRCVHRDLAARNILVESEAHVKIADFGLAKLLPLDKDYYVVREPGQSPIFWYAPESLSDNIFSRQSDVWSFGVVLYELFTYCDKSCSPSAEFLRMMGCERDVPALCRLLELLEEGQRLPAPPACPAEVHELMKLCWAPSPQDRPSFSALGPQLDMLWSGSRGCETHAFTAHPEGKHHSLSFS
The experiment is described as follows: Western blotting assay for Jak3. To be noted: 1 hour, IL-2 stimulation, read-out: Jak3 inhibition. Here is the method: All cell lines were obtained from the American Type Culture Collection and were maintained at 37° C. with 5% CO2. Ramos cell line was maintained in media supplemented with 10% fetal bovine serum, penicillin (100 units/mL) and streptomycin (100 μg/mL). NK-92 cell line was maintained in media supplemented with 10% fetal bovine serum and 10% horse serum, penicillin (100 units/mL) and streptomycin (100 μg/mL), IL-2 10 ng/mL. Goat F(ab′)2 Anti-Human IgM-UNLB was obtained from SouthernBiotech. IL-2 was obtained from Peprotech.
NK-92 cells were treated with compounds at the dosed indicated for 1 hour in incubator, followed by the IL-2 stimulation for 15 minutes. Cells were then collected and lysed to prepare the cellular extraction. Western blots were performed on cell lysate using Phospho-Jak3, Jak3, Phospho-Stat5, Stat5 antibodies (Cell Signaling Technology). The intensity of blotting band was acquired using Image Lab (Bio-Rad) software, and the IC50 of target was generated with GraphPad Prism.
(A western blot detects proteins with antibodies after separation by electrophoresis.)

Experiment [2] concerns the target T2, Btk phosphorylation in Ramos cells (Homo sapiens, UniProt Q06187).
T2 construct: endogenous in cells; host or cells: Ramos cells (ATCC)
The experiment in a line: Pulse chase western blotting assay for irreversibility / binding property. To be noted: 100 nM for 45 mins, monitored 4, 6 and 8 h post removal. Here is the method:
Ramos cells were treated with Compound I-1 at 100 nM for 45 min. Cells were then re-suspended in compound free media and stimulated with 6 μg/ml IgM at 0, 4, 6 or 8 hours after compound removal. Cells were then lysed after 30 mm IgM stimulation. West blotting analysis were then performed.
Ramos cells were treated with Compounds at 100 nM for 45 min. Cells were then re-suspended in compound free media and stimulated with 6 μg/ml anti-IgM at 0, 4, 6 or 8 hours after compound removal. Cells were then lysed after 30 mm anti-IgM stimulation. Western blotting analysis was then performed.

Experiment [3] has as its system Stat5 phosphorylation in NK-92 cells. The experiment is described as follows: Western blotting assay for Stat5. To be noted: NK92, 1 hour, IL-2 stimulation, read-out: Stat5 inhibition. A digest of the protocol:
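NK-92 cells, maintained with IL-2, were pre-treated with compound for 1 h, then stimulated with IL-2 for 15 min. Lysates were western blotted for phospho- and total Jak3 and Stat5. IC50 came from densitometry of phospho-band intensity.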

The target in experiment [4] is T3, Btk (Tyr223) phosphorylation in Ramos cells (Homo sapiens, UniProt Q06187).
T3 construct: endogenous in cells; host or cells: Ramos cells (ATCC)
The experiment in a line: Western blotting assay for Btk (Example 73). To be noted: 45 min, 6 μg/mL anti-IgM, read-out: Btk Inhibition. A digest of the protocol: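 Ramos cells pre-treated with compound for 45 min at room temperature, then stimulated with 6 μg/mL anti-IgM for 30 min and lysed. Phospho-Btk (Tyr223) measured by Western blot band densitometry; IC50 fitted by non-linear regression.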

Molecules are shown by their SMILES. “Also recorded” adds a separate entry of the source. Bounds are passed on as bounds.

T2 sequence (Q06187 whole entry): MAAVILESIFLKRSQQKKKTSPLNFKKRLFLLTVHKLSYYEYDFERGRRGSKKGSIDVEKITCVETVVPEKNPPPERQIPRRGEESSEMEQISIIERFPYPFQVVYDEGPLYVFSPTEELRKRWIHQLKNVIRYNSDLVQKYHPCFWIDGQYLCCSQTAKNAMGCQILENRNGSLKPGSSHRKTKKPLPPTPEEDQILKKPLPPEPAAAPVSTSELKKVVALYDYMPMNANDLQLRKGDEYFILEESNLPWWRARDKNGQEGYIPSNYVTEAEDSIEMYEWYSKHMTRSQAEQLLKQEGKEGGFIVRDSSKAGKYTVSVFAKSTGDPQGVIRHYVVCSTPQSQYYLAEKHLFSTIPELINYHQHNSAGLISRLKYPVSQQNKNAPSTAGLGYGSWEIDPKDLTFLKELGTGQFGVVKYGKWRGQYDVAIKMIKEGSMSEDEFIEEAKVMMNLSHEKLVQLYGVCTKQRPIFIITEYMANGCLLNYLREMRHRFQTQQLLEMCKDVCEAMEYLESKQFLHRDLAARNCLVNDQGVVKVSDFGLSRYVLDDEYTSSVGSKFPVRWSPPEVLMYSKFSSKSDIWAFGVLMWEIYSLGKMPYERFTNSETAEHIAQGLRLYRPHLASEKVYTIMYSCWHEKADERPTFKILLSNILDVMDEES
T3 sequence (Q06187 whole entry): as above

For the compound `C=CC(=O)Nc1cccc(Oc2nc(Nc3ccc(N4CCN(C)CC4)cc3)ncc2OC)c1` [Compound I-1, N-(3-(5-methoxy-2-(4-(4-methylpiperazin-1-yl)phenylamino)pyrimidin-4-yloxy)phenyl)acrylamide], the results for the IC50 in experiment [1], in experiment [3] and in experiment [4] were not above 200 nM, not below 400 nM and not above 10 nM, respectively. Besides, the “inhibition of BTK phosphorylation after compound removal (irreversibility)” value in experiment [2] is “remains inhibited up to 8 his; also recorded: long term effect of the inhibition was observed after compounds removal up to 8 hours; also recorded: remains inhibited up to 8 hrs; also recorded: irreversibly inhibited the BTK phosphorylation; also recorded: inhibited the Btk phosphorylation in Ramos cells after 8 hours of removal”.

For the origin of these results see US9920074B2 (ACEA BIOSCIENCES INC., priority 2013, dated 2018).
